From patent US11649228B2, “Zinc indicators for cellular imaging” (The Board of Regents of the University of Texas System, priority 2018, dated 2023)

How the values were obtained:
[1] = system: primary mouse islet cells; assay: Flow cytometry analysis and FACS of mouse islet cells labeled with ZIGIR-2 and Ex4-Cy5; type: cell-based
Text: Among islet endocrine cells, β-cells have long been known to contain a high level of total Zn^2+ in their secretory granules. However, it remains unclear how Zn^2+ activities differ among different types of secretory granules including the glucagon granule and the somatostatin granule. To address the question, the inventors combined ZIGIR-2 and flow cytometry to analyze the granular Zn^2+ activity in primary mouse islet cells. To facilitate distinguishing different endocrine cells, they labeled mouse islets with a β-cell marker, a Cy5 dye conjugate of Exendin-4 peptide (Ex4) (Scheme 3). Ex4 is a high affinity ligand of the glucagon like peptide 1 receptor (GLP-1R). Since GLP-1R is highly expressed in mouse islet β-cells,^46 fluorescently labeled conjugates of Ex4 are rapidly internalized into β-cells through receptor-mediated endocytosis to mark β-cells.^36, 47 After labeling mouse islets with Ex4-Cy5, the inventors dispersed the islets into single cells and labeled them with ZIGIR-2 (FIG. 10A). […] To identify each subset of cells, the inventors isolated them by FACS and analyzed the sorted cells by immunofluorescence using antibodies against insulin, glucagon, and somatostatin. The immunofluorescence result confirmed that P1 and P2 subsets were essentially pure β-cells (99±0.3%, N=3) and α-cells (98±0.5%, N=3), respectively (FIG. 10C). […] The remaining ˜20% of cells in P3 and most cells in P4 were not stained by any of the three hormone antibodies. These cells likely represented rare […], islet endothelial cells or lymphoid cells, and residual exocrine cells.
Mouse islets were isolated as previously described (Li et al., 2011) by perfusing Collagenase P (Roche, 1.4 mg/mL in HBSS with 5 mM glucose) through the common bile duct. Following a 15 min digestion at 37° C., the pancreas digestion was washed twice with HBSS by centrifugation and the islets were hand-picked under a dissection scope. Isolated islets were cultured 2-4 hours in RPMI-1640 medium (GIBCO, #11875-093) supplemented with 10% (v/v) FBS, 2.0 mM sodium-pyruvate, 100 U/mL penicillin and […] at 37° C. in 5% CO2. To distinguish islet β-cells from non-β cells, islets were labeled with a fluorescently labeled exendin-4 derivative as previously described (Kim et al., 2017). Briefly, Ex4-Cy5 (100 nM) was added to the culture medium 2 hours before islet dispersion. ZIGIR labeling was carried out subsequently after islet dispersion. Mouse islets were dispersed with 0.05% Trypsin solution in DPBS at 37° C. for 15 min. The dispersed islet cells were incubated with 0.5 μM ZIGIR-1 (or ZIGIR-2) at 37° C. for 15 min in the cell sorting buffer (SAB Buffer containing 3 mM glucose, 0.5% BSA and 0.1 mg/mL DNase I (Roche)). The cells were then washed twice with ice-cold SAB and resuspended in the cell sorting buffer. The labeled cells were analyzed by flow cytometry on a LSRFortessa cell analyzer (BD Biosciences). DAPI (200 ng/mL) was added to the cell suspension prior to flow cytometry to distinguish live cells (DAPI negative) from dead cells (DAPI positive). Only live cells were analyzed.

[2] = Metal ion selectivity of fluorescence response; type: physicochemical; settings: 1 μM sensor, 10 μM TPEN; against Na^+, K^+, Ca^2+, Mg^2+, Fe^2+, Ni^2+, Co^2+, Cu^2+, Mn^2+
Method: To study the metal selectivity, the fluorescence of ZIGIR-1 (1 μM) or ZIGIR-2 (1 μM) was measured in the presence of 10 μM TPEN and an excess of metal ion including 1 mM KCl, 1 mM NaCl, 1 mM CaSO4, 1 mM MgSO4, 15 μM MnSO4, 15 μM FeSO4, 15 μM NiSO4, 15 μM CoCl2, 15 μM CuSO4, 15 μM CdSO4 or 15 μM ZnSO4. The emission intensity was normalized to that of 15 μM ZnSO4 (100%).

[3] = ZIGIR-2 and Ex4-Cy5 labeling, N=3

In the case of `CN(C)c1ccc2c(-c3ccc(NCCN(CCc4ccccn4)Cc4ccccn4)cc3C(=O)[O-])c3ccc(=[N+](C)C)cc-3oc2c1` [ZIGIR-2], the “median fluorescence intensity (MFI) in α-cells versus δ-cells” value [1] is reported as “nearly an order of magnitude stronger”, the “median fluorescence intensity (MFI) in α-cells, weaker than in β-cells” value [1] is reported as “about 5 times” and the “α-cells in sorted P2 subset” value [1, 3] is reported as 98±0.5%. The “β-cells in sorted P1 subset” value [1, 3] was 99±0.3%, the “δ-cells in sorted P3 subset” value [1, 3] was 81±4.8% and the “ability to resolve islet cells into subsets by granular Zn^2+ activity” value ([1]; compared with commercially available Zn^2+ sensors) was “able to resolve islet cells into distinct subsets”. The “selectivity of fluorescence response for Zn^2+” value [2] was “selective for Zn^2+”.
